Laboratory results from patent US4550186A, “Binuclear copper (II) carboxylates formed from amine-carboxyboranes” (Duke University, priority 1983, dated 1985).

Key:
[1] = Relative solubilities in solvents; assay type: physicochemical
From the text: Solvents in which ligand exchange reactions or initial formation of the complex may take place depend on the structure of the amine portion of the complex and on the ligand being introduced as is well understood by those skilled in the art. Typical solvents which may be used include water and polar organic solvents, such as methanol and pyridine. Typical of solubilities are the following relative solubilities of {Cu[(Me3 NBH2 COO)2.Me3 NBH2 CO2 H]}2 : […]

[2] = test system: Cholesterol Side Chain Oxidation; assay: In vitro liver enzyme study: cholesterol side chain oxidation; assay type: biochemical, mouse
Method: In vitro enzymatic studies were determined using 10% homogenates of CF1 male mouse liver with 50-200 μM of test drugs. In vivo enzymatic studies were determined using 10% homogenates of liver from CF1 male mice obtained after administering the agents for 16 days at a dose ranging from 2.5-20 mg/kg/day intraperitoneally. The liver homogenates for both in vitro and in vivo studies were prepared in 0.25M sucrose and 0.001M (ethylenedinitrilo)tetraacetic acid. Acetyl coenzyme A synthetase and adenosine triphosphate dependent citrate lyase activities were determined spectrophotometrically at 540 nm as the hydroxylamate of acetyl coenzyme A formed after 30 min at 37° C. Mitochondrial citrate exchange was determined by the procedure of Robinson et al [Eur. J. Biochem., 216, 63 (1970)] using ^14 C-sodium bicarbonate (41 mCi/mmol) incorporated into mitochondrial ^14 C-citrate after isolating rat mitochondria (9000 g×10 min) from the homogenates. The exchanges of the ^14 C-citrate were determined after incubating the mitochondrial fraction which was loaded with labeled citrate and test drugs for 10 min. Then the radioactivity was measured in the mitochondrial and supernantant fractions in scintillation fluid and expressed as a percentage. […] Acyl transferase activity was determined with glycerol-3phosphate [L-2-^3 H(N)] […] HCl and counted. […]

[3] = test system: thymidylate monophosphate, diphosphate and triphosphate levels of Ehrlich ascites cells; assay: In vivo thymidine incorporation into nucleotide pools; parameters: species or system mouse
Method: CF1 male mice (~30 g) were implanted with 2×10^6 Ehrlich ascites tumor cells, intraperitoneally on Day 0. Compound I was suspended by homogenation in 0.05% polysorbate.80-water and administered intraperitoneally at 10 and 20 mg/kg for 9 days to determine its effectiveness for inhibition of tumor growth. Mice were sacrificed on Day 10, and the ascites fluid was collected from the peritoneal cavity. The volume and ascrit (packed cell volume) were determined for each animal and the percent inhibition of tumor growth was calculated. For the metabolic studies, mice were treated on Days 8 and 9 with 10 mg/kg of Compound I, intraperitoneally. The animal was sacrificed on Day 10 and the ascites fluid harvested. The in vitro metabolic studies were performed at […] final concentration of Compound I.
Deoxythymidine as well as deoxythymidylate monophosphate and diphosphate kinase activities were measured spectrophotometrically at 340 nm at 30 min using reduced nicotinamide adenine dinucleotide (0.1 μmole). Thymidine incorporation (6-^3 H - 21.5 Ci/mmol) into nucleotides was measured using the medium of Maley and Ochoa [J. Biol. Chem., 223, 1538 (1958)]. The reaction medium was extracted with ether and the aqueous layer plated on PEI cellulose F plates and eluted with 0.5N formic acid: 0.6M LiCl (1:1). Areas which correlated with Rf values of thymidine, thymidylate monophosphate, diphosphate and triphosphate standards were scraped and counted.

[4] = 10 mg/kg/day I.P. on Days 8 and 9

## {Cu[(CH3)3 N.BH2 CO2 ]2.(CH3)3 N.BH2 COOH} [Compound I]
[1]; 2-Chloro-2-methylpropane
  Solubility: insoluble
[1]; Acetic Acid
  Solubility: moderately soluble
[1]; Acetone
  Solubility: insoluble
[1]; Acetonitrile
  Solubility: moderately soluble
[1]; Benzene
  Solubility: insoluble
[1]; Chloroform
  Solubility: insoluble
[1]; Diethyl ether
  Solubility: insoluble
[1]; Dimethyl sulfoxide
  Solubility: moderately soluble
[1]; Ethanol
  Solubility: very slightly soluble
[1]; Ethyl Acetate
  Solubility: insoluble
[1]; Isopropanol
  Solubility: insoluble
[1]; Isopropyl ether
  Solubility: insoluble
[1]; Methanol
  Solubility: moderately soluble
[1]; Methylene chloride
  Solubility: slightly soluble
[1]; Pentane
  Solubility: insoluble
[1]; Pyridine
  Solubility: moderately soluble
[1]; Tetrahydrofuran
  Solubility: insoluble
[1]; Water
  Solubility: very soluble
[2]; in vitro CF1 liver, 100 μM
  Cholesterol Side Chain Oxidation: 152 ± 7 Percent Control
[2]; in vitro, in the presence of drug
  degradation of cholesterol by oxidation of the side chain accelerated: 52%
[3]
  3H-Thymidine incorporation into thymidylate monophosphate pool reduced: 57%
  TDP pool reduced: 19%
  TTP pool reduced: 10%
[3]; [4]
  Thymidylate diphosphate levels: 89 ± 11 % Control
  Thymidylate monophosphate levels: 43 ± 6 % Control
  Thymidylate triphosphate levels: 90 ± 10 % Control
